# US20220144850A1, “INDOLO HEPTAMYL OXIME ANALOGUE AS PARP INHIBITOR” (Chia Tai Tianqing Pharmaceutical Group Co., Ltd., priority 2019, published 2022)
# Tested on: human breast cancer MDA-MB-436 cells
# Test: In vivo pharmacodynamic study, subcutaneous xenograft tumor model of MDA-MB-436 cells
# Set-up: species or system BALB/c nude mouse
# Conditions: for TGI: day 27; for Tumor volume (day 27): mean ± SEM
# Text: Experimental Example 9: In Vivo Pharmacodynamic Study of Compounds in Subcutaneous Xenograft Tumor BALB/c Nude Mouse Model of Human Breast Cancer MDA-MB-436 Cells
# Experimental objective: to study the efficacy in vivo of the test compound in subcutaneous xenograft tumor BALB/c nude mouse model of human breast cancer MDA-MB-436 cells.
# Experimental materials: week age and body weight: female BALB/c nude mice, 6-8 weeks old, 18-22 g of body weight. The experiment started after 3-7-days of adaptive feeding. The animal information card of each cage provides the following information about the animals: number, sex, strain, receiving date, administration regime, experiment number, group and starting date of the experiment. All the cages, padding and drinking water were sterilized before use. The cages, feed and drinking water were changed twice a week. The experimental animals were identified with ear tags. Test samples: Example 24_A and Example 25_A. All the test samples were prepared with 10% DMSO+90% (20% HP-β-CD) as vehicle, and the blank control group was administered with the vehicle alone.
# 1. Cell culturing. Human breast cancer MDA-MB-436 cells (ATCC, Manassas, Va., catalog No.: HTB-130) were cultured in an RPMI-1640 culture medium containing 10% fetal bovine serum and 1% Anti-anti through in vitro monolayer culture in an incubator at 37° C./5% CO2. The cells were digested with trypsin-EDTA twice a week for passaging as per conventional practice. At a cell saturation of 80%-90% and a required number, the cells were collected, counted and inoculated. 2. Tumor cell inoculation (tumor inoculation). 0.2 mL (1×10^7 cells) of MDA-MB-436 cells (along with matrigel in a volume ratio of 1:1) was subcutaneously inoculated on the right back of each mouse, and the mice were randomly grouped when the average tumor volume was 318 mm^3. 3. Daily observation of experimental animals: animals were monitored daily for health and death, and routine examinations include observation of the effect of tumor growth and drug treatment on the daily performance of the animals, such as behavioral activities, food and water intake, weight changes, appearance, or other abnormal conditions. 4. Tumor measurements and experimental indices: the experimental indices were to investigate whether the tumor growth was inhibited, the tumor growth was delayed or the tumor was cured. Tumor diameters were measured twice weekly using a vernier caliper. The tumor volume was calculated using the following formula: V=0.5a×b^2, where a and b represent the long diameter and short diameter of the tumor, respectively. The anti-tumor therapeutic effect of the compound was evaluated by TGI (%) or relative tumor proliferation rate T/C (%). TGI (%) refers to the rate of tumor growth inhibition. Calculation of TGI (%): TGI (%)=[(1−(average tumor volume at the end of administration in a treatment group−average tumor volume at the start of administration of the treatment group))/(average tumor volume at the end of treatment of the solvent control group−average tumor volume at the start of treatment of the solvent control group)]×100%. The calculation formula for relative tumor proliferation rate T/C (%) was as follows: T/C (%)=TRTV/CRTV×100% (TRTV: RTV of treatment group; CRTV: RTV of negative control group). Relative tumor volume (RTV) was calculated based on the results of tumor measurement. The calculation formula was: RTV=Vt/V0, wherein V0 was the average tumor volume measured at the time of grouping and administration (i.e., d0), Vt was the average tumor volume at a certain measurement, and the data of TRTV and CRTV used were obtained on the same day. 5. Statistical analysis: including mean and standard error of mean (SEM) of tumor volume at each time point for each group. […] The experimental data were analyzed using a one-way ANOVA method and a Games-Howell method. All data analysis was performed with SPSS 17.0. p<0.05 was defined as a significant difference.
smiles,measurement,setting,value
CC1(c2ccc(-c3[nH]c4cc(F)cc5c4c3CONC5=O)cc2)CCCN1 (stereo not drawn) [Example 25_A],TGI,12.5 mg/kg PO QD × 28 days,95.34%
same,Tumor volume (day 27),12.5 mg/kg PO QD × 28 days,377 ± 149 mm^3
same,TGI,25 mg/kg PO QD × 28 days,114.69%
same,Tumor volume (day 27),25 mg/kg PO QD × 28 days,132 ± 32 mm^3
same,TGI,50 mg/kg PO QD × 28 days,117.86%
same,Tumor volume (day 27),50 mg/kg PO QD × 28 days,91 ± 14 mm^3
